{"source": "ChEMBL document CHEMBL1137409", "about": "“Discovery of phenyl acetic acid substituted quinolines as novel liver X receptor agonists for the treatment of atherosclerosis” (J Med Chem, 2006)", "key": {"[1]": {"assay": "Half life in human liver microsomes", "type": "ADME, Microsome"}, "Huh-7 [2]": {"test_system": "Huh-7", "assay": "Induction of SREBP1c expression in Huh7 cell line", "type": "functional, cell-based", "settings": "Homo sapiens"}, "[3]": {"molecular_target": "T1, Peroxisome proliferator-activated receptor delta (Homo sapiens, UniProt Q03181)", "T1 sequence (Q03181 whole entry)": "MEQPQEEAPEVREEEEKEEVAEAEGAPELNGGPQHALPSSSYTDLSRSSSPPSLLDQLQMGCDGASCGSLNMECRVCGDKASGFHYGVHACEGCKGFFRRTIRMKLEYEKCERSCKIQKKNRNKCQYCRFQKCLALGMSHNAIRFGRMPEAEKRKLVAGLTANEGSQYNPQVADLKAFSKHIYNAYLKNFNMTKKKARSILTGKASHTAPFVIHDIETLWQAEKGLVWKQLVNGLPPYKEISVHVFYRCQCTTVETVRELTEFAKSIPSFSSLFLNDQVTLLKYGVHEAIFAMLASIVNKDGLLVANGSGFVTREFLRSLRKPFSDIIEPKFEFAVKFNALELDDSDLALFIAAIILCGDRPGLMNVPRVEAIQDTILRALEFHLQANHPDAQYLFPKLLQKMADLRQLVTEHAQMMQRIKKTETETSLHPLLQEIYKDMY", "assay": "Agonist activity at human PPAR delta by GAL4 transactivation assay", "type": "functional"}, "[4]": {"molecular_target": "T2, Peroxisome proliferator-activated receptor gamma (Homo sapiens, UniProt P37231)", "T2 sequence (P37231 whole entry)": "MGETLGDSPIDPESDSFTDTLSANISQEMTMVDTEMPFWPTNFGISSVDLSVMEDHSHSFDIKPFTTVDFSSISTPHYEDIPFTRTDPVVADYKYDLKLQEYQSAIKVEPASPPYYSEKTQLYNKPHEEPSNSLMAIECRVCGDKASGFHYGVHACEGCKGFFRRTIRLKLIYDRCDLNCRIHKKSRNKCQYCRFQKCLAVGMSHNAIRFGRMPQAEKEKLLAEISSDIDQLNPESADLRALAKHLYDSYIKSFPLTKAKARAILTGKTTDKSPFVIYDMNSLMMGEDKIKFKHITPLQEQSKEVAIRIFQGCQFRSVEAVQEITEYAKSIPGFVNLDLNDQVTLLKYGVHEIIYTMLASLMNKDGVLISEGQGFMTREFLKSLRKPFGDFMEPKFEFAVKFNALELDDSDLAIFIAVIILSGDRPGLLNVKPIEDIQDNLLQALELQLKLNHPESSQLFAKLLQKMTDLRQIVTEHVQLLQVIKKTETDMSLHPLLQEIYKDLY"}, "Huh-7 [5]": {"test_system": "Huh-7", "assay": "Induction of SREBP1c expression in Huh7 cell line relative to TO901317", "type": "functional, Homo sapiens"}, "THP-1 [6]": {"test_system": "THP-1", "assay": "Induction of ABCA1 expression in THP1 cell line", "type": "functional, cell-based", "settings": "Homo sapiens"}, "[7]": {"molecular_target": "T3, Peroxisome proliferator-activated receptor alpha (Homo sapiens, UniProt Q07869)", "T3 sequence (Q07869 whole entry)": "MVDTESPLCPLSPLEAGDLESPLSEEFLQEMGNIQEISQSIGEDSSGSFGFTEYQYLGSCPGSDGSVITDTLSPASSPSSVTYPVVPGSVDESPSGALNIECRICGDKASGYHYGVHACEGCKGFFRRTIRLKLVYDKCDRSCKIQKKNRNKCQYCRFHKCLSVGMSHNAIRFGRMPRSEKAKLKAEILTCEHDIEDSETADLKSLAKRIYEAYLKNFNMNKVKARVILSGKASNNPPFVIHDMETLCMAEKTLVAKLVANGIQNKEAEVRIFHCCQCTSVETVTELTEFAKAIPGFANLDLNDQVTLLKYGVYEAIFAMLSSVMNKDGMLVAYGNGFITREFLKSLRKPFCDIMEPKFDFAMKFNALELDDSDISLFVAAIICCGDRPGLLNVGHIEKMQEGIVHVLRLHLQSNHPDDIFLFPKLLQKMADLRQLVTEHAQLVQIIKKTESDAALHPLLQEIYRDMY", "assay": "Agonist activity at human PPAR alpha by GAL4 transactivation assay", "type": "functional"}, "THP-1 [8]": {"test_system": "THP-1", "assay": "Induction of ABCA1 expression in THP1 cell line relative to TO901317", "type": "functional, Homo sapiens"}, "[9]": {"molecular_target": "T4, Oxysterols receptor LXR-alpha (Homo sapiens, UniProt Q13133)", "T4 sequence (Q13133 whole entry)": "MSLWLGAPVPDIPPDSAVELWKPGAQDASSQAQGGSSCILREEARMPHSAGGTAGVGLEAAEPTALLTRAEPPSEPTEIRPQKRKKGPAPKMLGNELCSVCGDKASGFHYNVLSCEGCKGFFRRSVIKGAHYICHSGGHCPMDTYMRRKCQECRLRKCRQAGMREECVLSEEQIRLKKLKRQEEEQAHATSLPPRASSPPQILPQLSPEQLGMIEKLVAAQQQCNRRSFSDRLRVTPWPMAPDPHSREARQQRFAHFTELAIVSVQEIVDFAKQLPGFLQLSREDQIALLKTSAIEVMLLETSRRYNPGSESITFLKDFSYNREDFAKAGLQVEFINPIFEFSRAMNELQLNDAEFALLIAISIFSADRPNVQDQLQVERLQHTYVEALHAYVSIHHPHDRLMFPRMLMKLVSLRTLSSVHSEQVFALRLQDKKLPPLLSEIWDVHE"}, "[10]": {"molecular_target": "T5, Oxysterols receptor LXR-beta (Homo sapiens, UniProt P55055)", "T5 sequence (P55055 whole entry)": "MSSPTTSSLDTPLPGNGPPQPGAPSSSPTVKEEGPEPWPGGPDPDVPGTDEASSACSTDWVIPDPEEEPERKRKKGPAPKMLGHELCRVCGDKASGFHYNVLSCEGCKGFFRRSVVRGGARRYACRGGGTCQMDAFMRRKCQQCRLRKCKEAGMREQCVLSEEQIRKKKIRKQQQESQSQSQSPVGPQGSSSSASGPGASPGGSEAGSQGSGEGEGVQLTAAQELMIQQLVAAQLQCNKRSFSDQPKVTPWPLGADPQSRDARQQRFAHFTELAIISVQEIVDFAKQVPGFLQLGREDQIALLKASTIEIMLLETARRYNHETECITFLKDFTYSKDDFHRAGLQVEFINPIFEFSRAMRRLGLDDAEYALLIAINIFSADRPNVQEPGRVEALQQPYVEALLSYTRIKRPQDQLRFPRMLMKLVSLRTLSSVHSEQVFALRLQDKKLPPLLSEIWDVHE"}, "[11]": {"assay": "Bioavailability in C57 mouse at 10 mg/kg, po", "type": "ADME, organism-based", "settings": "in vivo"}, "[12]": {"assay": "AUC (0-infinity) in C57 mouse at 10 mg/kg, po", "type": "ADME, organism-based", "set-up": "time infinity, dose 10 mg/kg, route oral", "settings": "plasma"}, "[13]": {"molecular_target": "T4, Oxysterols receptor LXR-alpha", "assay": "Agonist activity at human LXR alpha expressed in Huh7 cells by GAL4 transactivation assay", "type": "functional, cell-based, Huh-7"}, "Mus musculus": {"test_system": "Mus musculus", "assay": "Reduction of atherosclerotic lesion of thoracic aorta in LDLr knockout C57BL/6 mouse at 10 mg/kg/day, po after 8 weeks relative to control", "type": "functional", "set-up": "scale not given: the % may be the effect or the level left"}, "THP-1 [14]": {"test_system": "THP-1", "assay": "Stimulation of cholesterol efflux in THP1 cell line", "type": "functional, cell-based", "settings": "Homo sapiens"}, "[15]": {"assay": "Cmax in C57 mouse at 10 mg/kg, po", "type": "ADME, organism-based", "set-up": "dose 10 mg/kg, route oral", "settings": "in vivo"}, "[16]": {"assay": "Tmax in C57 mouse at 10 mg/kg, po", "type": "ADME, organism-based", "set-up": "dose 10 mg/kg, route oral", "settings": "in vivo"}, "[17]": {"assay": "Terminal half life in C57 mouse at 10 mg/kg, po", "type": "ADME, organism-based", "set-up": "dose 10 mg/kg, route oral", "settings": "in vivo, read-out: beta t1/2 (converted)"}, "[18]": {"molecular_target": "T5, Oxysterols receptor LXR-beta", "assay": "Agonist activity at human LXR beta expressed in Huh7 cells by GAL4 transactivation assay", "type": "functional, cell-based, Huh-7"}, "[19]": {"molecular_target": "T5, Oxysterols receptor LXR-beta", "remark": "listed apart in the source"}, "[20]": {"assay": "Half life in human liver microsomes at 20 uM", "type": "ADME, Microsome"}}, "data": [{"smiles": "O=C(O)Cc1ccc(COc2cccc(-c3c(Cc4ccccc4)cnc4c(C(F)(F)F)cccc34)c2)cc1", "values": [{"measurement": "half-life", "setting": "[1]", "result": 107, "unit": "min"}, {"measurement": "EC50", "setting": "Huh-7 [2]", "result": 45, "unit": "nM"}, {"measurement": "EC50", "setting": "[3]", "result": 627, "unit": "nM"}, {"measurement": "EC50", "setting": "[4]", "result": 680, "unit": "nM"}, {"measurement": "Efficacy", "setting": "Huh-7 [5]", "result": 106, "unit": "%"}, {"measurement": "EC50", "setting": "THP-1 [6]", "result": 55, "unit": "nM"}, {"measurement": "EC50", "setting": "[7]", "result": 1310, "unit": "nM"}, {"measurement": "Efficacy", "setting": "THP-1 [8]", "result": 172, "unit": "%"}]}, {"smiles": "O=C(O)Cc1ccc(CNc2cccc(-c3c(Cc4ccccc4)cnc4c(C(F)(F)F)cccc34)c2)cc1", "values": [{"measurement": "IC50", "setting": "[9]", "result": 7.6, "unit": "nM"}, {"measurement": "EC50", "setting": "Huh-7 [2]", "result": 15, "unit": "nM"}, {"measurement": "EC50", "setting": "[10]", "result": 33, "unit": "nM"}, {"measurement": "EC50", "setting": "[3]", "result": 1320, "unit": "nM"}, {"measurement": "bioavailability", "setting": "[11]", "result": 67, "unit": "%"}, {"measurement": "AUC(0-inf)", "setting": "[12]", "result": 4440, "unit": "ng·h/mL"}, {"measurement": "EC50", "setting": "[4]", "result": 320, "unit": "nM"}, {"measurement": "EC50", "setting": "[13]", "result": 160, "unit": "nM"}, {"measurement": "Activity", "setting": "Mus musculus", "result": 45, "unit": "%"}, {"measurement": "EC50", "setting": "THP-1 [14]", "result": 37, "unit": "nM"}, {"measurement": "Cmax", "setting": "[15]", "result": 3740, "unit": "ng/mL"}, {"measurement": "Efficacy", "setting": "Huh-7 [5]", "result": 73, "unit": "%"}, {"measurement": "EC50", "setting": "THP-1 [6]", "result": 33, "unit": "nM"}, {"measurement": "Tmax", "setting": "[16]", "result": 30, "unit": "min"}, {"measurement": "EC50", "setting": "[7]", "result": 1300, "unit": "nM"}, {"measurement": "half-life", "setting": "[17]", "result": 78, "unit": "min"}, {"measurement": "EC50", "setting": "[18]", "result": 87, "unit": "nM"}, {"measurement": "Efficacy", "setting": "THP-1 [8]", "result": 151, "unit": "%"}]}, {"smiles": "COC(=O)c1ccc(COc2cccc(-c3c(C(=O)c4ccccc4)cnc4c(C(F)(F)F)cccc34)c2)cc1", "values": [{"measurement": "IC50", "setting": "[19]", "result": "> 1000", "unit": "nM"}, {"measurement": "IC50", "setting": "[9]", "result": "> 1000", "unit": "nM"}, {"measurement": "EC50", "setting": "[10]", "result": 296, "unit": "nM"}]}, {"smiles": "O=C(O)Cc1ccc(COc2cccc(-c3c(C(=O)c4ccccc4)cnc4c(C(F)(F)F)cccc34)c2)cc1", "values": [{"measurement": "half-life at 20 µM", "setting": "[20]", "result": 3.5, "unit": "min"}]}, {"smiles": "O=C(O)Cc1cccc(OCCCN(Cc2cccc(C(F)(F)F)c2Cl)CC(c2ccccc2)c2ccccc2)c1", "values": [{"measurement": "IC50", "setting": "[19]", "result": 12, "unit": "nM"}, {"measurement": "IC50", "setting": "[9]", "result": 100, "unit": "nM"}, {"measurement": "EC50", "setting": "[10]", "result": 410, "unit": "nM"}, {"measurement": "Activity", "setting": "Mus musculus", "result": 27, "unit": "%"}]}]}
